Data as given in PubChem BioAssay (NCI).
“And” between values parts separate entries of the source, which are not always exact repeats. Equal values may be shown once.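 Grown in 96-well plates, cells were treated for 48 hours with each compound at five concentrations. Insufficient inhibition: endpoint recorded as highest concentration tested. GI50 marks 50% less growth. At the TGI there is no net growth.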

What was measured:
Assay in all cases: growth of human tumour cells (NCI), 48 h
DMS 273 small cell lung = tested on: DMS 273 small cell lung
DMS 114 small cell lung = tested on: DMS 114 small cell lung
DLD-1 colon = tested on: DLD-1 colon
KM20L2 colon = tested on: KM20L2 colon
MCF7 breast = tested on: MCF7 breast
BT-549 breast = tested on: BT-549 breast
MDA-MB-231 breast = tested on: MDA-MB-231 breast
MDA-N = tested on: MDA-N
RXF-631 renal = tested on: RXF-631 renal

| Structure (SMILES) | GI50 (MCF7 breast) | TGI (MCF7 breast) [µM] | GI50 (BT-549 breast) | TGI (BT-549 breast) | GI50 (MDA-MB-231 breast) | TGI (MDA-MB-231 breast) | also measured |
| --- | --- | --- | --- | --- | --- | --- | --- |
| CN(C)c1ccc(/C=c2\sc3nnc(Cc4ccccc4)n3c2=O)cc1 | – | – | – | – | – | – | GI50 (DMS 273 small cell lung): > 10 µM; TGI (DMS 273 small cell lung): > 100 µM; GI50 (DMS 114 small cell lung): > 10 µM; TGI (DMS 114 small cell lung): > 10 µM and 33.8 µM; GI50 (DLD-1 colon): > 100 µM; TGI (DLD-1 colon): > 100 µM; GI50 (KM20L2 colon): > 100 µM; TGI (KM20L2 colon): > 100 µM |
| COc1ccc(OC)c(/C=C/C(=O)c2ccc3cc(OC)ccc3c2)c1 | 11.4 µM | > 50 | 7.01 µM | > 37.4 µM | > 50 µM | > 50 µM | – |
| O=C(O)CSc1nnc2c3ccccc3c3ccccc3c2n1 | – | > 100 | – | > 100 µM | – | > 100 µM | TGI (MDA-N): > 100 µM |
| CN(C)c1ccc(/C=N/NC(=O)c2cnc3ccccc3c2)cc1 | – | > 100 | – | > 100 µM | – | > 100 µM | TGI (MDA-N): > 100 µM |
| NCCNc1ncnc2ccc(Cl)cc12 | – | > 100 | – | > 100 µM | – | > 100 µM | TGI (MDA-N): > 100 µM |
| CN1CCN(Cc2ccc(NC(=O)c3[nH]ncc3Nc3cc(OC4CCCC4)ncn3)cc2)CC1 | 1.59 µM | 4.96 | 1.75 µM | 3.97 µM | 2.64 µM | 7.46 µM | – |
| COC(=O)[C@]1(C)CC[C@]2(C)CC[C@]3(C)C(=CC(=O)[C@@H]4[C@@]5(C)CCC(=O)NC(C)(C)[C@@H]5CC[C@]43C)[C@@H]2C1 | 13.3 µM | 43.5 | 12.8 µM | 28 µM | 20.9 µM | 48.7 µM | – |
| C=CC(=O)Nc1cccc(Nc2nc(Nc3ccc(N4CCN(C(C)=O)CC4)cc3OC)ncc2C(F)(F)F)c1 | 1.41 µM and 0.933 µM | > 100 | 4.14 µM | > 10 µM and 10.6 µM | 4.47 µM and 4.02 µM | > 10 µM and 20.6 µM | – |
| COc1cc[nH]c1/C=C1\C(=O)Nc2ccc([N+](=O)[O-])c(N3CC[C@@H](O)C3)c21 | 0.121 µM | 2.85 | 0.328 µM | 1.59 µM | 0.479 µM | 2.31 µM | – |
| COC(=O)C(C(=O)C(=O)Nc1ccc(N)cc1[N+](=O)[O-])c1nc2ccc(Cl)cc2[nH]c1=O (configuration not stated) | – | – | – | – | – | – | TGI (DMS 273 small cell lung): > 100 µM; TGI (DMS 114 small cell lung): > 100 µM; TGI (DLD-1 colon): > 100 µM; TGI (KM20L2 colon): > 100 µM |
| CSc1nc(-c2cccc(NC(=O)CCl)c2)c(C#N)c(=O)n1C | 0.24 µM | 2.39 | 1.51 µM | 3.02 µM | 1.6 µM | 3.38 µM | – |
| Nc1nc(N)c(-c2ccc(Cl)cc2)c(/C=C/c2ccc([N+](=O)[O-])cc2)n1 | 3.16 µM | > 100 | 13.1 µM | 90.3 µM | 8.01 µM | > 100 µM | – |
| COc1ccc(S(=O)(=O)N/N=C/CN2C(=O)c3ccccc3C2=O)cc1 | – | – | – | – | – | – | TGI (DMS 273 small cell lung): > 100 µM; TGI (DLD-1 colon): > 100 µM; TGI (KM20L2 colon): > 100 µM |
| O=[N+]([O-])c1ccc2nc(=S)[nH]n2c1 | – | > 100 | – | > 100 µM | – | > 100 µM | – |
| CCCCCC/C(CC(=O)CCC(=O)NCCc1ccccc1)=N\NC(=O)c1ccc2ccccc2c1O | – | – | – | – | – | – | TGI (RXF-631 renal): > 100 µM; TGI (DLD-1 colon): > 100 µM; TGI (KM20L2 colon): > 100 µM |
| COc1ccc2c(c1)O/C(=C\c1ccc([N+](=O)[O-])s1)C2=O | 0.621 µM | > 100 | – | – | – | – | – |

| Structure (SMILES) | GI50 (MCF7 breast) | TGI (MCF7 breast) [µM] | GI50 (BT-549 breast) | TGI (BT-549 breast) | GI50 (MDA-MB-231 breast) | TGI (MDA-MB-231 breast) | also measured |
| --- | --- | --- | --- | --- | --- | --- | --- |
| CCN1C(=O)N(CC)C2C1NN=c1s/c(=C\c3cnc(C)n3C)c(=O)n12 (configuration not stated) | 0.676 µM | > 100 | 3.66 µM | 90.9 µM | 2.5 µM | 31.9 µM | – |
| CCCNC(=O)Nc1ccc2c(c1)Cc1cc(N(CCCl)CCCl)ccc1-2 | – | 77.5 | – | 85 µM | – | > 100 µM | – |
| CCC(=O)Oc1ccc(/C=N/NC(N)=S)nc1 | 1.88 µM | > 100 | 11.9 µM | > 100 µM | 6.79 µM | > 100 µM | – |
| C[C@H](CCCOS(C)(=O)=O)[C@H]1CC[C@H]2[C@@H]3CC[C@@H]4C[C@H](OS(C)(=O)=O)CC[C@]4(C)[C@H]3CC[C@]12C | 323 µM | 692 | – | – | 503 µM | – | – |
| Nc1nc(Cl)c2ncn(Cc3ccc(-c4ccc(CCl)cc4)cc3)c2n1 | 7.31 µM | 71.7 | 7.13 µM | 37.8 µM | – | – | – |
| NC(N)=NC(N)=NCc1ccco1 | 600 µM | > 1250 | 336 µM and 974 µM | > 1250 µM | > 1250 µM | > 1250 µM | – |
| CC1(C)N=C(N)N=C(N)N1c1ccc(CCC(=O)Nc2cccc(S(=O)(=O)F)c2)cc1 | 6.48 µM | > 100 | 7.21 µM | > 100 µM | 86.8 µM | > 100 µM | – |
| CC(=O)CC(=O)ON(C)C(=O)Cc1ccccc1 | – | – | – | – | – | – | TGI (DMS 273 small cell lung): > 100 µM; TGI (DMS 114 small cell lung): > 100 µM; TGI (DLD-1 colon): > 100 µM; TGI (KM20L2 colon): > 100 µM |
| O=C(N/N=C/c1cccc(O)c1)c1ccc(C(F)(F)F)nc1Nc1cccc(C(F)(F)F)c1 | 1.37 µM | 4.08 | 0.76 µM | 3.41 µM | 1.08 µM | 3.02 µM | – |
| Cn1c(=O)c2[nH]cnc2n(C)c1=O.[CH2-]C(Cc1cccc2cc(C(=O)O)c(=O)oc12)OC.[Hg+2].[OH-] (configuration not stated) | 16.6 µM | 33 | 17.3 µM | 31.2 µM | 20.9 µM | 35.6 µM | GI50 (MDA-N): 17.2 µM; TGI (MDA-N): 30.9 µM |
| COc1ccc2c(c1)NC(=O)CN2c1nc(C)nc2ccccc12 | 0.000363 µM | > 100 | 0.0021 µM | – | 0.000914 µM | > 100 µM | – |
| CC1CCC2[C@@H](C)COC3O[C@]4(C)CCC1C32OO4 (some centres not stated) | – | – | – | – | – | – | TGI (DMS 273 small cell lung): > 100 µM; TGI (DMS 114 small cell lung): > 100 µM; TGI (DLD-1 colon): > 100 µM; TGI (KM20L2 colon): > 100 µM |
| CCC12C=CCN3CCC4(C(=C(C(=O)OC)C1)Nc1ccccc14)[C@H]32 (some centres not stated) | – | – | – | – | – | – | TGI (DMS 273 small cell lung): 42.8 µM; TGI (DMS 114 small cell lung): 49.5 µM; TGI (DLD-1 colon): > 100 µM; TGI (KM20L2 colon): 47.6 µM |
| COc1ccc([Se]c2ccc(OC)cc2)cc1 | – | – | – | – | – | – | TGI (DMS 273 small cell lung): > 100 µM; TGI (DMS 114 small cell lung): > 100 µM; TGI (DLD-1 colon): > 100 µM; TGI (KM20L2 colon): > 100 µM |
| COc1cc(OC)c2c(c1Cl)O[C@]1(C2=O)C(OCc2ccccc2)=CC(=O)C[C@H]1C | 0.395 µM | 25.9 | 2.28 µM | 21.1 µM | 1.22 µM | 5.02 µM | – |
